Each block holds one compound with its values, some of them ahead of it.
How the values were obtained:
[1] = biological target: Wee1-like protein kinase (Homo sapiens) (UniProt P30291); test: Selectivity interaction (LanthaScreen Eu Kinase Binding Assay) EUB0001632a WEE1; details: at 10 µM
[2] = biological target: T1, Cytoplasmic tyrosine-protein kinase BMX (Homo sapiens) (UniProt P51813); test: Selectivity interaction (KinomeScan (DiscoverX)) EUB0000666a BMX; details: at 10 µM
T1 sequence (whole entry): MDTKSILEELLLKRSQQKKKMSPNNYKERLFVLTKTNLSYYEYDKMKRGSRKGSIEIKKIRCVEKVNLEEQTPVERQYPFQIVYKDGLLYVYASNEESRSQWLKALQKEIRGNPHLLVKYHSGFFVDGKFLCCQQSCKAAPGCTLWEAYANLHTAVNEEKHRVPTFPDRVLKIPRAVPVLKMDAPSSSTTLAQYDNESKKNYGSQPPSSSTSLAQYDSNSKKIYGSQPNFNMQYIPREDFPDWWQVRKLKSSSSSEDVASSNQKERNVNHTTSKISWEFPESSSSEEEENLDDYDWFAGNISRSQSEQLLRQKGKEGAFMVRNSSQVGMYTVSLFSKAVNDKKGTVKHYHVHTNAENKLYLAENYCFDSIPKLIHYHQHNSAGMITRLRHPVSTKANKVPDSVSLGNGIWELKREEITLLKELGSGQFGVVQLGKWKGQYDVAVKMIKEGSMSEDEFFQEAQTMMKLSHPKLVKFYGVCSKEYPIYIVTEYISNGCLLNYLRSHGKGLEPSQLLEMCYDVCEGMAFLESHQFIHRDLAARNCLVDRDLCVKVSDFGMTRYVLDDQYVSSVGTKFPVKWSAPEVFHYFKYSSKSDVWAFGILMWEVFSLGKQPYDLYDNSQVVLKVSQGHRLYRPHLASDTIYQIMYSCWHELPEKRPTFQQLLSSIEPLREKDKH

[3] = biological target: Serine/threonine-protein kinase 26 (Homo sapiens, UniProt Q9P289); test: Selectivity interaction (Kinase panel (literature)) EUB0001199aCl STK26; details: at 1 µM
Chain of Serine/threonine-protein kinase 26 (Q9P289 2-416 limits assumed): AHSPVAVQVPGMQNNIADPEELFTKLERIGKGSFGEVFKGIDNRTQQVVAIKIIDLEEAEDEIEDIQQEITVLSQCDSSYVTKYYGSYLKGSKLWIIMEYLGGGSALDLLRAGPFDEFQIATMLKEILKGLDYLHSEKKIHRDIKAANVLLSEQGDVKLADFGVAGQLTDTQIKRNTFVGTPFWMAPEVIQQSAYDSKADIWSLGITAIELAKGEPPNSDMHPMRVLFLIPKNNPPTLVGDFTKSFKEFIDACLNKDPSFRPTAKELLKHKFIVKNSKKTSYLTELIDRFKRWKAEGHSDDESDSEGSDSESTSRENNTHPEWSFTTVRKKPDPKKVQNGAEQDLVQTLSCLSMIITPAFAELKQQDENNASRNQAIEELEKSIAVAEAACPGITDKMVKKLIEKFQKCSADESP

[4] = biological target: T2, Serine/threonine-protein kinase Nek9 (Homo sapiens) (UniProt Q8TD19); test: Selectivity interaction (KinomeScan (DiscoverX)) EUB0000092b NEK9; details: at 10 µM
T2 sequence (whole entry): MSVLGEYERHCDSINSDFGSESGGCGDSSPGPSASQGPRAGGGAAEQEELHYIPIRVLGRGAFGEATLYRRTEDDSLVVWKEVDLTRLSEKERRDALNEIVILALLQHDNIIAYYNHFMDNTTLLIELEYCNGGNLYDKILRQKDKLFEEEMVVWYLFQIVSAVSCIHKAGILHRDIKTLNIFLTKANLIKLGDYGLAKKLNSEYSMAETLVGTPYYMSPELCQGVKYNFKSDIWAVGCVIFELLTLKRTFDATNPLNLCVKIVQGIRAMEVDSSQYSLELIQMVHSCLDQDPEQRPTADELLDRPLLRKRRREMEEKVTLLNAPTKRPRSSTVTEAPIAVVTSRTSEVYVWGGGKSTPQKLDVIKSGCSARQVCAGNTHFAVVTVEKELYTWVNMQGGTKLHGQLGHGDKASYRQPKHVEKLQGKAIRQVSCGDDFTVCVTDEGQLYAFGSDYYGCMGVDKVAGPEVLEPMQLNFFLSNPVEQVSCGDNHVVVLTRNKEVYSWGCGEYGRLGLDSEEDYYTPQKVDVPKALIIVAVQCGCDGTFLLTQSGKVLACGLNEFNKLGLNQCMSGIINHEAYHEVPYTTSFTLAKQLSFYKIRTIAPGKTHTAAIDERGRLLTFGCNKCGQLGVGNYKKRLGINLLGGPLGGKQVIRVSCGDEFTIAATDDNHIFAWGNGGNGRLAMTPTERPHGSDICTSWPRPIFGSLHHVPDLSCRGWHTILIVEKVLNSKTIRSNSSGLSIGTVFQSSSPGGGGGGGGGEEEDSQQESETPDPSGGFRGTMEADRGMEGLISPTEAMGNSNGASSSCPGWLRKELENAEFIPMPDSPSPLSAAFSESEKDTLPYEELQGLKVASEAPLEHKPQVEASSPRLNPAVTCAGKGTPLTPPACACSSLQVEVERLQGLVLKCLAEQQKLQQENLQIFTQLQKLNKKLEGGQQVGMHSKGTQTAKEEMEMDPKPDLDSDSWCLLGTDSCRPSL

Chain of Wee1-like protein kinase (Homo sapiens) (P30291 whole entry, looked up): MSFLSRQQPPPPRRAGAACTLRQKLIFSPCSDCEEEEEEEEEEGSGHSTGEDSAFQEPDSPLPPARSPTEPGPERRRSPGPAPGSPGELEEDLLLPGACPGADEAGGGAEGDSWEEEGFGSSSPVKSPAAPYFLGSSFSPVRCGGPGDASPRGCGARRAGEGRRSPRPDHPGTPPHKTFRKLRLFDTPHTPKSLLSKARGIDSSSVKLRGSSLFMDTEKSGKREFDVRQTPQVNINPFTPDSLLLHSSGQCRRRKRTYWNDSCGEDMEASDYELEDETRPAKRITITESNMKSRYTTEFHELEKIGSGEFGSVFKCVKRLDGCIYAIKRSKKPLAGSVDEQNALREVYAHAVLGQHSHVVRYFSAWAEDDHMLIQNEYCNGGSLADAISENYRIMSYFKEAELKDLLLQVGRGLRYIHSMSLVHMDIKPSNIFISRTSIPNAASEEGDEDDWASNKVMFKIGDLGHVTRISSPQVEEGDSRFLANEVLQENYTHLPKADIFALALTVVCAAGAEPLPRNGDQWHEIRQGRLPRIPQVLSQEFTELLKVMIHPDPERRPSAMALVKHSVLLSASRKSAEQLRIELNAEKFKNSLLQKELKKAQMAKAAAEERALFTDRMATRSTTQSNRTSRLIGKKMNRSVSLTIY

% of inhibition [1]: -20.9%
Structure (SMILES): Cn1cc(-n2cnc3c(NCc4nc5cc(Cl)c(Cl)cc5[nH]4)nc(N4CCOCC4)nc32)cn1

Structure (SMILES): O=C(NOC[C@H](O)CO)c1ccc(F)c(F)c1Nc1ccc(I)cc1F
% of control [2]: 92%

% of inhibition [3]: 8%
Structure (SMILES): CN1Cc2nccc(-c3cn(C)nc3-c3ccc(F)cc3)c2C1=O

Structure (SMILES): CCC(=O)N1CCN(c2ccc(-n3c(=O)ccc4cnc5ccc(-c6cnc7ccccc7c6)cc5c43)cc2C(F)(F)F)CC1
% of control [4]: 100%
